Test results as given in PMC9604868, “Evaluation of Possible Antioxidant, Anti-Hyperglycaemic, Anti-Alzheimer and Anti-Inflammatory Effects of Teucrium polium Aerial Parts (Lamiaceae)” (Life, 2022).

Assays:
[1] = system: carrageenan-induced paw edema; assay: Carrageenan-induced hind paw edema; conditions: mice, gavage, extract 10% 0.5 mL or diclofenac 10 mg/kg; for % Oedema Reduction: versus control
[2] = system: rat renal medulla COX; design: method as in PMID 33802084; conditions: cited from earlier work
[3] = DPPH radical scavenging assay; conditions: means ± SD (n = 3)
Description: (§1) The antioxidant activity of T. polium L. hydroalcoholic extract was achieved using several analytical tests distinguished by their mechanism of reaction 2-diphenyl-1-picrylhydrazyl (DPPH), β-carotene and galvinoxyl radical (GOR). The reaction was initiated by mixing 0.5 mL of hydroalcoholic extract with 1 mL of DPPH (0.2 mM), β-carotene (0.5 mM) and GOR (0.1 mM) using the protocols described in references. The mixtures were left in the dark at room temperature for approximately 30 min; after that, the absorbance was measured at λmax: […], 490 and 428 nm for the mentioned tests, respectively, against a blank using a UV-vis spectrophotometer apparatus (Shimadzu UV-2450, Japan). The inhibition percentage was calculated as follows: I% = ((A0 − A1)/A0) × 100, where A0 is the absorbance of DPPH, β-carotene and GOR solutions without extracts, while A1 were the absorbance of the sample. The activity results for all tests were expressed as IC50 (half maximal inhibitory concentration) values, which have been calculated (using Microsoft Excel 2016) from an antiradical linear graph formed by the X axis, which represented extract concentration, and the Y axis, which represented their relative inhibition percentage. In addition, the antioxidant activity results were compared with three standards, BHA, BHT and vitamin, as represented in Table 1.

[4] = β-carotene assay; conditions: means ± SD (n = 3)
Description: as §1

SMILES: O=C(O)Cc1ccccc1Nc1c(Cl)cccc1Cl [Diclofenac sodium]
- % Oedema ([1]; 4 h after carrageenan): 20.42%
- Average Paw Weight (g) Left ([1]; carrageenan-injected paw, 4 h): 0.171 ± 0.009 g
- Average Paw Weight (g) Right ([1]; uninjected paw, 4 h): 0.142 ± 0.001 g
- % Oedema Reduction ([1]; 4 h after carrageenan): 52.97%
- % Oedema Reduction ([1]; 4 h after carrageenan, listed as diclofenac sodium): 52.97%

SMILES: O=c1cc(-c2ccc(O)c(O)c2)oc2cc(O)cc(O)c12 [Luteolin (7), luteolin]
- IC50 [2]: 100 to 130 µM

SMILES: COc1ccc(O)c(C(C)(C)C)c1 [BHA, butylated hydroxyanisole]
- DPPH IC50 [3]: 6.14 ± 0.41 µg/mL
- β Carotene IC50 [4]: 1.05 ± 0.03 µg/mL

SMILES: Cc1cc(C(C)(C)C)c(O)c(C(C)(C)C)c1 [BHT, 2,6-ditert-butyl-4-methylphenol]
- DPPH IC50 [3]: 12.99 ± 0.41 µg/mL
- β Carotene IC50 [4]: 0.91 ± 0.01 µg/mL

SMILES: Cc1c(C)c2c(c(C)c1O)CC[C@@](C)(CCC[C@H](C)CCC[C@H](C)CCCC(C)C)O2 [Vitamin E, α-Tocopherol]
- DPPH IC50 [3]: 15.81 ± 0.54 µg/mL
